Experimental data: ChEMBL document CHEMBL4422653, “Discovery of a potent tyrosine kinase AXL inhibitor bearing the 3-((2,3,4,5-tetrahydro-1H-benzo[d]azepin-7-yl)amino)pyrazine core” (Bioorg Med Chem Lett, 2019)

Experiments:
Assay type in all cases: ADME, organism-based
Details in all cases: in vivo
[1] = Half life in Sprague-Dawley rat at 1 mg/kg, iv
[2] = AUC (0 to infinity) in Sprague-Dawley rat at 1 mg/kg, iv; parameters: dose 1 mg/kg, route intravenous, time infinity
[3] = Clearance in Sprague-Dawley rat at 1 mg/kg, iv
[4] = Cmax in Sprague-Dawley rat at 3 mg/kg, po; parameters: dose 3 mg/kg, route oral
[5] = Tmax in Sprague-Dawley rat at 3 mg/kg, po
[6] = AUC (0 to infinity) in Sprague-Dawley rat at 3 mg/kg, po; parameters: dose 3 mg/kg, time infinity, route oral
[7] = Oral bioavailability in Sprague-Dawley rat at 3 mg/kg

- half-life [1]: 2.12 h
- AUC(0-inf) [2]: 179 ng·h/mL
- clearance [3]: 93.2 mL/min/kg
- Cmax [4]: 23.8 ng/mL
- Tmax [5]: 4 h
- AUC(0-inf) [6]: 199 ng·h/mL
- bioavailability [7]: 24.8%
SMILES: CCc1nc(C(N)=O)c(Nc2ccc3c(c2)CCN(C2CCCC2)CC3)nc1NC1CCOCC1
